# Data published in patent US7833964B2, “Methods of reducing visceral fat by increasing levels of insulin-like growth factor-I (IGF-I)” (Tercica, Inc., priority 2003, dated 2010).
# Where “and” joins values, the source holds several entries; their conditions need not be identical. Equal entries are not always repeated.
# Legend:
# Format in all cases: in vivo, human
# [1] = Abdominal CT scan: visceral (VAT) and subcutaneous (SAT) adipose tissue, abdominal perimeter; conditions: for change in abdominal perimeter by CT scan, mean±SEM: 12 weeks
# Protocol: All CT scans were performed on GE Sytec 4000 CT scanners or an equivalent scanner.
# An initial Abdominal Scan was performed using the following procedure: • 1. After the thigh scan was complete, a small triangular wedge pillow was placed under the subject's knees to help tilt the spine to the correct position. The arms were crossed over the chest/neck with elbows up and out of the way of the abdomen. The subject's underpants were pulled down so that the elastic of the underwear was well out of the way of the site where the scan was taken. • 2. The technician positioned the bed in the scanner so that a lateral topogram could be taken that included at least T12 through L5 of the spine. This picture was recorded on film. • 3. The location of the midsection of L3 was identified. • 4. A 10-mm slice at the level of the midpoint of L3 (angle must be zero so that the slice was perpendicular) was taken at the same settings as were used for the thigh slice, with the exception of the DFOV, which was 35 or 45 (35 for a small person and 45 for a large person).
# The entire cross section of the abdomen was on the screen. If the entire abdomen was not on the screen, the picture was reconfigured. Once the entire abdomen was on the screen, the technician downloaded it onto the disk and verified that the image was actually on the disk. This was then recorded on film. • 5. The technician sent the film to the printer at this point. It was a requirement that each film had four pictures, and the film had the lateral topogram of the spine and the slice. • 6. The technician then recorded the exam number, the series number, and the image number of slice. • 7. The subject was then removed from the table if there were no more measurements to obtain and the film was collected.
# The same procedures were then followed for the repeat abdominal scans with identical settings and locations being used for the repeat scans.
# Slices were downloaded onto the scanner and then retrieved via optical disk (or the Internet if possible) to a computer for analysis. During analysis, the area of intra-abdominal and subcutaneous fat as well as oblique, psoas, quadratum laborum, and sacrospinalis muscles were measured. The images were digitized by optical density to separate bone, muscle, and fat compartments using a modified version of the NIH IMAGE program. Pixel units were converted to area measurements using an internal calibration standard. Digitized images were analyzed in a blinded fashion. The coefficient of variation of repeated analysis of a single scan is <1.5%.
# Another independent measurement was that the CT scan assessed the abdominal diameter and the abdominal perimeter (e.g., belt size). The abdominal perimeter in subjects treated with glyburide alone was unchanged (−0.3±0.8 cm, mean±SEM) but in subjects treated with IGF-I at 20 micrograms/kg it was reduced (−1.4±0.8 cm) and was reduced even more in subjects treated with 40 micrograms/kg to (−2.9±1.3 cm). This reduction in “girth” caused by high dose IGF-I was, in layman's terms over an inch, or one belt notch, clearly a significant effect in only 12 weeks.
# The body components contributing to these beneficial effects of IGF-I on body weight, BMI and girth were then analyzed by studying the changes in body composition as measured by computerized scanning. Two scans were performed. A scan was performed before treatment with IGF-I and another scan was performed after treatment with IGF-I. These two scans were analyzed by measuring the area of fat so that the effect of treatment with IGF-I could be ascertained.
# The effect of IGF-I on body fat was estimated using the visceral adipose tissue (VAT) in abdomen and the subcutaneous adipose tissue (SAT) in the abdomen. The absolute changes in fat and the percent changes in fat were both analyzed. The percent changes were analyzed to guard against subjects with larger amounts of fat being given undue statistical weight in the analyses. […]
# [2] = Change in body weight; conditions: for Weight Change (SE) Week 12: change from Day 1
# Source text: The efficacy endpoints were the change in glucose control as assessed by the change from baseline (day 1 to week 12) in hemoglobin A1c (HbA1c) levels, and changes from baseline (day 1 to week 12) in fasting blood glucose (BG), body weight, and visceral and mid-thigh fat.
# The primary efficacy variable for the assessment of treatment effect on glucose control at Week 12 was the change from baseline (day 1) in HbA1c levels. Secondary efficacy variables assessing glucose control at Week 12 were the change from baseline (day 1) for each of the following: fasting blood glucose concentration, weight, and visceral and mid-thigh fat.
# Secondary efficacy variables assessing glucose control at Week 12 were the change from baseline (Day 1) for each of the following: weight, and visceral and mid-thigh fat.
# [3] = Change in BMI; conditions: for BMI Change (SE) Wk 14: 2 weeks after treatment stopped
# Source text: The degree of obesity in humans is commonly assessed by calculating the body mass index or BMI. The BMI is essentially correcting body weight for height. Obviously a very tall person will likely weigh more than a person with short stature so this correction for height makes BMI a better gauge of the degree of obesity than uncorrected body weight. Table 6 gives the BMI data for the subjects treated with IGF-I. At baseline the subjects had average BMIs of over 30. Overweight is defined as a BMI of over 25 and obesity is defined as a BMI of over 30. […] Treatment with IGF-I reduced BMI and this effect was maintained until week 14, which was 2 weeks after treatment with IGF-I was stopped. In subjects treated with 20 micrograms of IGF-I, BMI fell by 1.0 kg/m^2 at 12 weeks and 0.9 kg/m^2 at week 14. This effect of IGF-I on BMI was highly statistically significant versus glyburide at week 12 (p=0.019) and week 14 (p=0.0064). Therefore IGF-I had the ability to reduce BMI or directly affect the most widely accepted measure of obesity. […] This greater effect of low dose IGF-I was unexpected.
# [4] = test system: hemoglobin A1c (HbA1c); test: Glucose control: change from baseline in HbA1c, double-blind placebo-controlled study in type II DM; conditions: for Hemoglobin A1c Endpoint Change % from baseline, Mean (SD): last available measurement carried forward; for Hemoglobin A1c Change % from baseline, Week 4, Mean (SD): type II DM subjects
# Protocol: Accordingly, subjects with type II DM were treated with a combination of rhIGF-I and glyburide, or with rhIGF-I or glyburide alone, to ascertain the potential benefits of the addition of rh1GF-I to glyburide therapy on glycemic control, incidence of hypoglycemia, and weight gain. […] The use of any additional orally administered drug or insulin to treat hyperglycemia during the pretreatment and treatment periods was prohibited. […] Randomization was stratified by gender, by prior oral […] agent therapy, and by HbA1c level at day 14.
# [5] = Change in body weight; conditions: for Weight Change (SE) Week 14: 2 weeks after treatment stopped; for Weight Change (SE) Week 8: change from Day 1
# [6] = glyburide active + IGF-I placebo
# [7] = glyburide active + IGF-I placebo, abdominal CT, change from baseline
# [8] = glyburide 10 mg BID + rhIGF-I placebo
# [9] = IGF-I 20 μg/kg, with glyburide or glyburide placebo per label
# [10] = IGF-I 40 μg/kg, with glyburide or glyburide placebo per label
# [11] = IGF-I 20 μg/kg BID, with glyburide or glyburide placebo per label
# [12] = IGF-I 40 μg/kg BID, with glyburide or glyburide placebo per label
# [13] = low dose IGF-I (20 μg/kg BID) alone
# [14] = subjects treated with 20 micrograms of IGF-I
# [15] = rhIGF-I 20 μg/kg BID SC, with glyburide 10 mg BID or glyburide placebo per label
# [16] = rhIGF-I 40 μg/kg BID SC, with glyburide 10 mg BID or glyburide placebo per label
compound,measurement,setting,value
"COc1ccc(Cl)cc1C(=O)NCCc1ccc(S(=O)(=O)NC(=O)NC2CCCCC2)cc1 [Glyburide, glyburide, reference compound]",Mean SAT % Change (SEM),[1]; [6],1% and 1.0 (1.9) %
same,Mean VAT % Change (SEM),[1]; [6],9% and 9.3 (3.9) %
same,"Change in SAT, mean (SEM)",[1]; [7],2.0 (5.6) cm^2
same,"Change in VAT, mean (SEM)",[1]; [7],13.6 (6.4) cm^2
same,"change in abdominal perimeter by CT scan, mean±SEM",[1]; glyburide alone,−0.3±0.8 cm
same,Weight Change (SE) Week 12,[2]; [8],−0.1 (0.5) kg
same,BMI Change (SE) Wk 12,[3]; [8],0.0 (0.2) kg/m^2
same,BMI Change (SE) Wk 14,[3]; [8],0.0 (0.3) kg/m^2
same,BMI Change (SE) Wk 8,"[3]; glyburide 10 mg BID + rhIGF-I placebo, change from Day 1",−0.1 (0.1) kg/m^2
same,"Hemoglobin A1c Change % from baseline, Week 8, Mean (SD)",[4]; [8],0.05 (0.7) %
same,"Hemoglobin A1c Change % from baseline, Week 12, Mean (SD)",[4]; [8],0.32% and 0.32 (0.7) %
same,"Hemoglobin A1c Endpoint Change % from baseline, Mean (SD)",[4]; [8],0.12 (0.8) %
same,"Hemoglobin A1c Change % from baseline, Week 4, Mean (SD)",[4]; [8],−0.13 (0.5) %
same,Weight Change (SE) Week 14,[5]; [8],0.0 (0.8) kg
same,Weight Change (SE) Week 8,[5]; [8],−0.2 (0.4) kg
"IGF-I: recombinant human insulin-like growth factor-I from Genentech; sterile benzyl alcohol-preserved solution, 70 mg in 7 mL acetate/NaCl, pH 5.4; given SC","Change in SAT, mean (SEM)",[1]; [9],−12.3 (4.1) cm^2
same,"Change in VAT, mean (SEM)",[1]; [9],1.0 (9.0) cm^2
same,Mean SAT % Change (SEM),[1]; [9],−6.0 (2.6) %
same,Mean VAT % Change (SEM),[1]; [9],1.0 (4.0) %
same,"Change in SAT, mean (SEM)",[1]; [10],−16.1 (5.4) cm^2
same,"Change in VAT, mean (SEM)",[1]; [10],−20.0 (7.6) cm^2
same,Mean SAT % Change (SEM),[1]; [10],−6.4 (2.5) %
same,Mean VAT % Change (SEM),[1]; [10],−9.4 (3.9) %
same,visceral fat area reduced by,[1]; IGF-I alone at 40 μg/kg,~10%
same,"change in abdominal perimeter by CT scan, mean±SEM",[1]; IGF-I at 20 micrograms/kg,−1.4±0.8 cm
same,"change in abdominal perimeter by CT scan, mean±SEM",[1]; IGF-I at 40 micrograms/kg,−2.9±1.3 cm
same,Weight Change (SE) Week 12,[2]; [11],−2.8 (0.7) kg
same,Weight Change (SE) Week 12,[2]; [12],−0.6 (0.7) kg
same,"weight lost on average, Week 12",[2]; [13],2.8 kg
same,BMI Change (SE) Wk 8,[3]; [11],−0.5 (0.2) kg/m^2
same,BMI Change (SE) Wk 12,[3]; [11],−1.0 (0.2) kg/m^2
same,BMI Change (SE) Wk 14,[3]; [11],−0.9 (0.2) kg/m^2
same,BMI Change (SE) Wk 8,[3]; [12],−0.1 (0.2) kg/m^2
same,BMI Change (SE) Wk 12,[3]; [12],−0.2 (0.2) kg/m^2
same,BMI Change (SE) Wk 14,[3]; [12],−0.6 (0.2) kg/m^2
same,"BMI fell by, at 12 weeks",[3]; [14],1.0 kg/m^2
same,"BMI fell by, at week 14",[3]; [14],0.9 kg/m^2
same,"Hemoglobin A1c Change % from baseline, Week 8, Mean (SD)",[4]; [15],−0.29 (0.8) %
same,"Hemoglobin A1c Change % from baseline, Week 12, Mean (SD)",[4]; [15],0.13 (1.2) %
same,"Hemoglobin A1c Change % from baseline, Week 4, Mean (SD)",[4]; [15],−0.10 (0.6) %
same,"Hemoglobin A1c Endpoint Change % from baseline, Mean (SD)","[4]; rhIGF-I 20 μg/kg BID SC, with glyburide 10 mg BID or placebo per label",0.04 (0.9) %
same,"Hemoglobin A1c Change % from baseline, Week 8, Mean (SD)",[4]; [16],−0.47 (0.9) %
same,"Hemoglobin A1c Change % from baseline, Week 12, Mean (SD)",[4]; [16],−0.58% and −0.58 (1.2) %
same,"Hemoglobin A1c Change % from baseline, Week 4, Mean (SD)",[4]; [16],−0.37 (0.5) %
same,"Hemoglobin A1c Endpoint Change % from baseline, Mean (SD)","[4]; rhIGF-I 40 μg/kg BID SC, with glyburide 10 mg BID or placebo per label",−0.30 (0.8) %
same,Weight Change (SE) Week 14,[5]; [11],−2.7 (0.6) kg
same,Weight Change (SE) Week 8,[5]; [11],−1.5 (0.6) kg
same,Weight Change (SE) Week 14,[5]; [12],−1.6 (0.5) kg
same,Weight Change (SE) Week 8,[5]; [12],−0.2 (0.5) kg
same,weight loss 2 weeks after treatment was stopped (Week 14),[5]; [13],2.7 kg
same,"weight lost on average, Week 8",[5]; [13],1.5 kg
